Measurements reported in patent publication US12257238B2, “Magnesium biotinate compositions and methods of use” (Nutrition21, LLC, priority 2016, dated 2025).
Converted amounts (≈) assume the structure as drawn. Where two headings read alike, the source gives them in different places.

Tests used:
Liver cGMP = Liver cGMP in rats; type: in vivo, male Sprague-Dawley rats; settings: 30 days, mean
[1] = Stability of magnesium D-biotinate (storage, hygroscopicity, light); type: physicochemical
[2] = Absorption study in rats: serum, liver and brain biotin; settings: for Liver Biotin / Serum Biotin / Brain Biotin: 30 days, mean
[3] = Solubility of magnesium D-biotinate; settings: for Solubility in water: compared with biotin
[4] = cited from earlier work
in vivo = settings: male, Sprague-Dawley, rat, serum, oral
[5] = 0.01 mg/kg body weight, listed as MgB, 0.01 mg/kg
[6] = 1 mg/kg body weight, listed as MgB, 1 mg/kg
[7] = 100 mg/kg body weight, listed as MgB, 100 mg/kg
[8] = 1 mg/kg body weight, listed as B, 1 mg/kg
[9] = 100 mg/kg body weight, listed as B, 100 mg/kg

O=C(O)CCCC[C@@H]1SC[C@@H]2NC(=O)N[C@@H]21 [magnesium D-biotinate]
Liver cGMP (Liver cGMP; 0.01 mg/kg body weight): 8.60 pmol/mg protein | Liver cGMP (Liver cGMP; 1 mg/kg body weight): 13.04 pmol/mg protein | Liver cGMP (Liver cGMP; 100 mg/kg body weight): 17.07 pmol/mg protein | Storage stability ([1]; 30 days at 40% relative humidity and 25° C.): stable | Storage stability ([1]; 30 days at 40% relative humidity and 25° C., listed as Magnesium biotinate): no signs of degradation | Storage stability ([1]; 30 days at 75% relative humidity and 40° C.): stable | Storage stability ([1]; 30 days at 75% relative humidity and 40° C., listed as Magnesium biotinate): no signs of degradation | Stability on exposure to light ([1]; amorphous solid): stable upon exposure to light | Hygroscopicity ([1]; amorphous solid, as measured by weight): not hygroscopic | Stability on exposure to light ([1]; amorphous solid, listed as Magnesium biotinate): did not change color | Storage stability ([1]; room temperature): stable | Liver Biotin [2, 5]: 0.03 nmol/g | Serum Biotin [2, 5]: 23.41 nmol/L | Brain Biotin [2, 6]: 0.66 nmol/g | Liver Biotin [2, 6]: 0.71 nmol/g | Serum Biotin [2, 6]: 171.13 nmol/L | Brain Biotin [2, 7]: 1.65 nmol/g | Liver Biotin [2, 7]: 1.62 nmol/g | Serum Biotin [2, 7]: 5161.43 nmol/L | Absorption ([2]; compared to biotin): higher absorption | Solubility ([3]; Water): ~10 mg/mL (≈ 40.9 mM) | Solubility ([3]; water): ≥ 10 mg/mL | Solubility in water ([3]; water): unexpectedly soluble in water | Solubility in water ([3]; water, listed as magnesium biotinate): significantly improved solubility

[O]=[Mg] [MgO, magnesium oxide]
Solubility ([4]; Benzene): salts insoluble | Solubility ([4]; Dimethyl sulfoxide (DMSO)): MgO insoluble; | Solubility ([4]; Ethanol): MgO insoluble; | Solubility ([4]; Methanol): MgO insoluble; | Solubility ([4]; N,N-Dimethylformamide (DMF)): MgO insoluble; | Solubility ([4]; Water): MgO insoluble;

O=C(O)CCCC[C@@H]1SC[C@@H]2NC(=O)N[C@@H]21 [Biotin, D-biotin]
Liver cGMP (Liver cGMP; 0.01 mg/kg body weight): 8.46 pmol/mg protein | Liver cGMP (Liver cGMP; 1 mg/kg body weight): 12.01 pmol/mg protein | Liver cGMP (Liver cGMP; 100 mg/kg body weight): 14.68 pmol/mg protein | concentration at 30 days (in vivo; 0.01 mg/kg): 0.0236 µM | concentration at 30 days (in vivo; 1 mg/kg): 0.137 µM | concentration at 30 days (in vivo; 100 mg/kg): 3.52 µM | Brain Biotin ([2]; 0.01 mg/kg body weight): 0.14 nmol/g | Liver Biotin ([2]; 0.01 mg/kg body weight, listed as B, 0.01 mg/kg): 0.02 nmol/g | Brain Biotin [2, 8]: 0.42 nmol/g | Liver Biotin [2, 8]: 0.56 nmol/g | Brain Biotin [2, 9]: 1.37 nmol/g | Liver Biotin [2, 9]: 1.38 nmol/g | Solubility ([4]; Benzene): Soluble | Solubility ([4]; Dimethyl sulfoxide (DMSO)): 4.9 g/100 mL | Solubility ([4]; Ethanol): 80 mg/100 mL | Solubility ([4]; Methanol): 80 mg/100 mL | Solubility ([4]; N,N-Dimethylformamide (DMF)): 170 mg/100 mL | Solubility ([4]; N,N-dimethylformamide, Merck Index): 1.7 mg/mL (≈ 6.96 mM) | Solubility ([4]; Water): 22 mg/100 mL | Solubility ([4]; other common organic solvents, Merck Index): insoluble
